Structures can show the parent of a compound that is named as a salt.
What was measured:
CYP1A1-mCherry HLC = test: Cell viability analysis (cell counting Kit-8); format: cell-based; settings: working concentration 10 μM, 24 hours, FIG. 10b
Experimental: 11. Cell Viability Analysis
To analyze cell viability, target chemicals (10 μM) were treated for 24 hours prior to performing cell viability analysis. Then, 10 μl of cell counting Kit-8 was added to 100 μl of the medium, followed by incubation for 2 hours. Absorbance was measured at 450 nm using an iMark™ microplate absorbance reader (Bio-Rad). Cell viability was calculated using the following formula: Cell viability (%)=(Asample−Ablank)/(Acontrol−Ablank)×100

CYP1A1 = test: Ethoxyresorufin-O-deethylase (EROD) analysis of CYP1A1 activity in CYP1A1-mCherry HLCs; settings: for inhibition of the effect of TCDD on CYP1A1 activity: FIG. 10d
Experimental: Ethoxyresorufin-O-Deetylase (EROD) Analysis
To measure the CYP1A1 activity, cells were cultured in a serum-free medium for 24 hours before treatment. The cells were treated with 7.5 μM ethoxyresorufin in the presence or absence of 10 μM dicumarol (inhibitor) in HBSS for 7.5, 15, 30 and 60 minutes, and 100 μl of the medium was removed into a new microcentrifuge tube. The same amount (100 μl) of ice-cold acetonitrile-methanol was added to the removed medium, followed by brief vortexing and centrifugation at 16,000×g for 5 minutes at 4° C. The supernatant was used for the following analysis. The level of the metabolite resorufin was measured by high-performance liquid chromatography (HPLC) with a Luna C18 column (4.6×150 mm, 5 μm; Phenomenex, Seoul, Korea). The moving phase was composed of 20 mM phosphate buffer-methanol-acetonitrile (52:45:3, v/v/v), and the flow rate was 0.8 ml/minute. Fluorescence was measured at an excitation wavelength of 560 nm and an emission wavelength of 585 nm. Concentrations were calculated using a standard curve for resorufin normalized by the total cellular protein content measured using a BCA protein analysis kit (Thermo Fisher Scientific).

AHR-CYP1A1 axis = test: High-content screening (HCS) of mCherry intensity in live CYP1A1-mCherry HLCs; settings: for inhibition of the effect of TCDD on mCherry expression: human
Experimental: 9. Chemical Treatment and High-Content Screening (HCS)
To perform HCS, the cells differentiated for 10 days were dissociated, plated in a Matrigel®-coated 96-well plate, and cultured for maturation. […] DMSO was used as a vehicle control. For staining the live cell nucleus, cells were cultured with 2 μg/ml of Hoechst 33342 (Life Technologies) for 10 minutes. Stained cells were imaged using ImageXpress Micro XLS Widefield High-Content Analysis System (Molecular Devices, San Jose, Calif., USA). The acquired images were analyzed using MetaXpress High-Content Image Acquisition and Analysis Software (Molecular Devices) according to disclosed methods. For analysis, cells were first identified using Hoechst staining and mCherry intensity was detected to measure CYP1A1 expression.

CYP1A1 mRNA = test system: CYP1A1 mRNA
Experimental: 8. Quantitative Reverse Transcription PCR (RT-qPCR)
Total RNA was extracted from each sample using NucleoZOL reagent (Macherey-Nagel, Duren, Germany) and reverse transcription was performed using GoScript™ reverse transcription mix (Promega) according to the manufacturer's protocol. RT-qPCR was performed with SYBR Green Realtime PCR Master Mix (TOYOBO, Osaka, Japan) in StepOnePlus Real-Time PCR system (Applied Biosystems, Foster City, Calif., USA). PCR amplification was performed in triplicate for each sample. PCR results were expressed as relative fold change compared to the control cells after normalization with glyceraldehyde-3-phosphate dehydrogenase (GAPDH). The ΔCt (SΔCt) value was calculated as the difference between the Ct value obtained for GAPDH and the target gene. The ΔCt value of the control cells was used as the control ΔCt (CΔCt) value. The relative gene expression level was determined using the following formula: 2−(SΔCt−CΔCt).
After preparing cells for RNA extraction, RT-qPCR analysis for the expression of CYP1A1 mRNA was performed according to the above procedure. Dose-response curves were created by the least squares fitting method using GraphPad Prism 5 (GraphPad, San Diego, Calif., USA).

mouse AHR = target: T1, mouse AHR (Mus musculus, UniProt P30561); settings: mouse AHR higher than human AHR; cited from earlier work
T1 sequence (P30561 10-848): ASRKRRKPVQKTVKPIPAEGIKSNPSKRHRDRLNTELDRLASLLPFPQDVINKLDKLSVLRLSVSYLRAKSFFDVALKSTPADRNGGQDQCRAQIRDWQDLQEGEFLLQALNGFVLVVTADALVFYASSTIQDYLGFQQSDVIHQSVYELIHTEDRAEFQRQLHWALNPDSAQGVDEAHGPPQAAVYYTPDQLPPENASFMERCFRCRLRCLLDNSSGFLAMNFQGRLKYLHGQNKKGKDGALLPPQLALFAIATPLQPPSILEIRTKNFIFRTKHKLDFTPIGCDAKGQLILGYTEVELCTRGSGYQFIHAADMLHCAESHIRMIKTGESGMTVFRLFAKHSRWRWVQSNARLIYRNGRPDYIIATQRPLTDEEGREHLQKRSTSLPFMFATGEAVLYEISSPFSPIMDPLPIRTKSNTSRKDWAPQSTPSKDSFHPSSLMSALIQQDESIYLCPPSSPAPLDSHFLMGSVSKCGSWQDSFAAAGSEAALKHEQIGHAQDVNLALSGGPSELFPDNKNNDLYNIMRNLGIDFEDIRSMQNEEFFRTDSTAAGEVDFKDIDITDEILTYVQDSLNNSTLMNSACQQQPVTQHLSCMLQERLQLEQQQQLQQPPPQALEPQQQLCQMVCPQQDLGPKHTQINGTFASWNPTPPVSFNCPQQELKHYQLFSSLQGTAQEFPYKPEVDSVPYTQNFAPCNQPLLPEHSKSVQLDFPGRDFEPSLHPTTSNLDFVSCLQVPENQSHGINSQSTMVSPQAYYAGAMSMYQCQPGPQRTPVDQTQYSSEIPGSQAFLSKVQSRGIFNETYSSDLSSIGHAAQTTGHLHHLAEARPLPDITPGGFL

For `COc1ccc(/C=C/c2cc(OC)cc(=O)o2)cc1` [2-E05, yangonin], which “cell death (cell viability)” value (CYP1A1-mCherry HLC) is on record?
The value was “without cell death”.

And the “inhibition of the effect of TCDD on CYP1A1 activity” value (CYP1A1)?
Its value is “at the levels of the non-treated control and CH223191”.

What about the “mCherry intensity compared to CH223191 and TMF” value (AHR-CYP1A1 axis) of the same molecule?
The value was “significant decrease”.

What about the “inhibition of the effect of TCDD on mCherry expression” value (AHR-CYP1A1 axis) of the same molecule?
Its value is “at the levels of the non-treated control and CH223191”.

Which “cell death (cell viability)” value (CYP1A1-mCherry HLC) does the source give for `COc1cc(/C=C/c2ccccc2)oc(=O)c1` [2-E06, desmethoxyyangonin] here?
The value was “without cell death”.

What about the “inhibition of the effect of TCDD on CYP1A1 activity” value (CYP1A1) of the same molecule?
The value was “at the levels of the non-treated control and CH223191”.

And the “mCherry intensity compared to CH223191 and TMF” value (AHR-CYP1A1 axis)?
Its value is “significant decrease”.

And the “inhibition of the effect of TCDD on mCherry expression” value (AHR-CYP1A1 axis)?
The value was “at the levels of the non-treated control and CH223191”.

Which “transcript expression levels of CYP1A1 and mCherry” value (CYP1A1 mRNA; co-treatment with BaP or TCDD, FIG. 7b) does the source give for `Cc1ccccc1N=Nc1ccc(NC(=O)c2ccnn2C)c(C)c1` [CH223191] here?
The value was “reduced”.

For `Clc1cc2c(cc1Cl)Oc1cc(Cl)c(Cl)cc1O2` [TCDD, 2,3,7,8-tetrachlorodibenzo-p-dioxin], which CYP1A1 activity (CYP1A1; 60 minutes, FIG. 6b) is on record?
Its CYP1A1 activity is “increased”.

And the “affinity of mouse AHR with TCDD compared to human AHR” value (mouse AHR)?
Its value is 10 fold.

And the “mCherry intensity after treatment” value (AHR-CYP1A1 axis; CYP1A1-mCherry HLC, AHR agonist treatment, FIG. 6a)?
The value was “time-dependent increase”.

Which “concentration of maximal induction” value (CYP1A1 mRNA) does the source give for `O=C(OCC(O)CO)c1ccccc1Nc1ccnc2cc(Cl)ccc12` (centres unmarked) [glafenine] here?
The value was “maximal induction at the concentrations used for screening”.

And the “increase according to the dose (dose-response, CYP1A1 mRNA)” value (CYP1A1 mRNA; human)?
Its value is 6- to 7 fold.

For `CC(Cc1ccc(O)c(O)c1)C(C)Cc1ccc(O)c(O)c1` (centres unmarked) [nordihydroguaiaretic acid], which “effect according to the dose (dose-response, CYP1A1 mRNA)” value (CYP1A1 mRNA; human, 24 h) is on record?
Its value is ~ 2 times.

With `COc1ccc(Cc2nccc3cc(OC)c(OC)cc23)cc1OC` [papaverine hydrochloride] as the molecule, how does the “concentration of maximal induction” value (CYP1A1 mRNA) read?
The value was “maximal induction at the concentrations used for screening”.

What about the “increase according to the dose (dose-response, CYP1A1 mRNA)” value (CYP1A1 mRNA; human) of the same molecule?
The value was 6- to 7 fold.

Source: patent publication US12680081B2, “Human induced pluripotent stem cell line transformed with fluorescent protein-labeled cytochrome P450 and AHR modulator screening method using same” (priority 2020, dated 2026)
